Test results published in US9802880B2, “Cannabigerol derivatives” (VIVACELL BIOTECHNOLOGY ESPAÑA S.L., priority 2014, dated 2017).

How the values were obtained:
N2a cells = assay: Neuroprotection assay, glutamate-induced excitotoxicity in N2a cells; assay type: cell-based; details: 1 h pre-incubation, then 5 mM glutamate 24 h, FIG. 5
Procedure: N2a cells were pre-incubated for 1 h with compounds (II) to (V) and (XII) at the indicated concentrations. Then, cells were treated for 24 h with 5 mM glutamate to induce excitotoxicity, or cytotoxicity in neuronal cells induced by neurotransmitters. Cell viability was quantified by MTT assay. […] Control was set as 100% and data were referred to that value.
Cultured N2A cells were pre-incubated with the compounds II, III, IV, V and XII at the indicated concentrations for 1 h and then treated with 5 mM glutamate to induce excitotoxicity during 24 h (FIG. 5). Cytotoxicity was determined by the MTT method as described in example 3. Results are shown as mean±S.D. from at least three independent experiments, and expressed as percentage of cell viability against the control sample (−). Control was set as 100% and data were referred to that value.

[1] = system: COX-2, iNOS, TNFα and IL-6; assay: 3NP model, inflammatory marker mRNAs in the striatum (real-time PCR); assay type: in vivo, C57BL/6 mice; details: 3NP-treated mice, 10 mg/kg, FIG. 10 and FIG. 11
Procedure: Gene expression of inflammatory markers including COX-2, TNFα, IL-6 and iNOS, was down regulated in 3NP+compound III (10 mg/kg) treated mice compared with 3NP+Vehicle mice. Expression levels were calculated using the 2^−ΔΔct method. Values are expressed as means±SEM for 6 animals per group.
Gene expression of inflammatory markers including COX-2, TNFα, IL-6 and iNOS, was down regulated in 3NP+XII (10 mg/kg) treated mice compared with 3NP+Vehicle mice. Expression levels were calculated using the 2^−ΔΔct method. Values are expressed as means±SEM for 6 animals per group.
Lesions of the striatum were induced with 3-NP in adult (16 week old; 30 g) male C57BL/6 mice (Harlan Ibérica, Barcelona, Spain). […] The right hemisphere was used to dissect the striatum, which was quickly frozen in RNAlater (Sigma-Aldrich, Germany) to analyzed inflammatory markers were by Real Time PCR. […] We evaluated the general locomotor activity, the hindlimb clasping and dystonia, and the truncal dystonia. […]
Total RNA was isolated from striata (3NP model) or spinal cord (EAE model) using RNeasy Lipid Tissue Mini Kit (Qiagen, GmbH). The total amount of RNA extracted was quantitated by spectrometry at 260 nm and its purity from the ratio between the absorbance values at 260 and 280 nm. […] Expression levels were calculated using the 2^−ΔΔct method.

6-OHDA-lesioned mice = assay: Parkinson's disease 6-OHDA model, rotarod and actimeter; assay type: in vivo, C57BL/6 mice; details: 6-OHDA mice, chronic intraperitoneal treatment 10 mg/ml, 14 days, FIG. 13
Procedure: C57BL/6 mice were unilaterally injected intracerebroventricullarly with 6-hydroxydopamine (6-OHDA) or saline (control mice) and subjected to chronic intraperitoneal treatment with compound III (10 mg/ml) or vehicle (14 days), starting 16 h after the 6-OHDA injection. Motor coordination was evaluated by rotarod performance and motor activity was evaluated using a computer-aided actimeter. Values are expressed as means±SEM for 6 animals per group.
C57BL/6 mice pretreated intracerebroventricularly (i.c.v.) were anesthetized with an intraperitoneal (i.p.) injection of 200 mg′kg of 2,2,2-tribromoethanol (Sigma-Aldrich) and placed in a stereotaxic frame with a mouse adapter (David Kopf Instruments, Tujunga, Calif., USA). […] Motor coordination was evaluated in the rotarod test (Ugo Basile, Rome, Italy) at crescent speed. […] The latency to fall off the rod was measured on consecutive days in lesioned mice following the compound III administration or vehicle control. Motor activity (ambulatory activity, mean velocity, resting time, fast movements and number of rearings) was evaluated using a computer-aided actimeter (FIG. 13).

PPARg [2] = system: PPARg
PPARg [3] = assay: PPARg transactivation assay in HEK-293 cells (GAL4-PPARγ / GAL4-luc); details: HEK-293 cells, 6 h treatment, FIG. 1

Structure (SMILES): CCCCCC1=C(NCC)C(=O)C(C/C=C(\C)CCC=C(C)C)=C(O)C1=O [Compound III, 6-(3,7-dimethyl-octa-2,6-dienyl)-5-hydroxy-3-pentyl-2-ethylamino-[1,4]benzoquinone]
- protection from glutamate-induced cytotoxicity (cell viability, MTT) (N2a cells): protect neuronal cells from glutamate-induced apoptosis
- up-regulation of pro-inflammatory markers COX-2, iNOS, TNFα and IL-6 in the striatum [1]: attenuated the up-regulation
- motor symptoms (ambulatory activity, mean velocity, resting time, fast movement, number of rearing, rotarod performance) (6-OHDA-lesioned mice): almost completely suppressed
- PPARg transactivation (luciferase activity, fold induction over untreated cells) (PPARg [2]): most active compounds
- PPARg activation (fold) compared with CBG-Q (PPARg [3]): higher efficiency than CBG-Q
